For this test, the target named is HER2YVMA (Homo sapiens, UniProt P04626, INS775YVMA). As to the kind of experiment: HER2 signaling (pHER2) in Hek293-HER2YVMA cells. It is filed as cell-based. Also noted: expressed in transfected cells; host or cells: HEK293 (pool), Ba/F3 (clones), BEAS2B (clones); lentiviral vector pCDH-CMV-MCS-EF1-Neo. To be noted: 1.5 hr compound, 1% FBS, read-out: HEKYVMA pHER2 EC50. In outline: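 Lentivirally transduced HER2YVMA lines (HEK293 pool; BEAS2B clone) treated 1.5 h at 37 °C in 1% FBS medium with compound at 0.0005–1.1 μM. Lysates read by MSD immunoassay for pHER2 (Tyr1248) normalized to total HER2, as % DMSO control; EC50 from variable-slope sigmoidal fit.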
HER2YVMA, sequence (P04626 with tags, fused parts or gaps INS775YVMA): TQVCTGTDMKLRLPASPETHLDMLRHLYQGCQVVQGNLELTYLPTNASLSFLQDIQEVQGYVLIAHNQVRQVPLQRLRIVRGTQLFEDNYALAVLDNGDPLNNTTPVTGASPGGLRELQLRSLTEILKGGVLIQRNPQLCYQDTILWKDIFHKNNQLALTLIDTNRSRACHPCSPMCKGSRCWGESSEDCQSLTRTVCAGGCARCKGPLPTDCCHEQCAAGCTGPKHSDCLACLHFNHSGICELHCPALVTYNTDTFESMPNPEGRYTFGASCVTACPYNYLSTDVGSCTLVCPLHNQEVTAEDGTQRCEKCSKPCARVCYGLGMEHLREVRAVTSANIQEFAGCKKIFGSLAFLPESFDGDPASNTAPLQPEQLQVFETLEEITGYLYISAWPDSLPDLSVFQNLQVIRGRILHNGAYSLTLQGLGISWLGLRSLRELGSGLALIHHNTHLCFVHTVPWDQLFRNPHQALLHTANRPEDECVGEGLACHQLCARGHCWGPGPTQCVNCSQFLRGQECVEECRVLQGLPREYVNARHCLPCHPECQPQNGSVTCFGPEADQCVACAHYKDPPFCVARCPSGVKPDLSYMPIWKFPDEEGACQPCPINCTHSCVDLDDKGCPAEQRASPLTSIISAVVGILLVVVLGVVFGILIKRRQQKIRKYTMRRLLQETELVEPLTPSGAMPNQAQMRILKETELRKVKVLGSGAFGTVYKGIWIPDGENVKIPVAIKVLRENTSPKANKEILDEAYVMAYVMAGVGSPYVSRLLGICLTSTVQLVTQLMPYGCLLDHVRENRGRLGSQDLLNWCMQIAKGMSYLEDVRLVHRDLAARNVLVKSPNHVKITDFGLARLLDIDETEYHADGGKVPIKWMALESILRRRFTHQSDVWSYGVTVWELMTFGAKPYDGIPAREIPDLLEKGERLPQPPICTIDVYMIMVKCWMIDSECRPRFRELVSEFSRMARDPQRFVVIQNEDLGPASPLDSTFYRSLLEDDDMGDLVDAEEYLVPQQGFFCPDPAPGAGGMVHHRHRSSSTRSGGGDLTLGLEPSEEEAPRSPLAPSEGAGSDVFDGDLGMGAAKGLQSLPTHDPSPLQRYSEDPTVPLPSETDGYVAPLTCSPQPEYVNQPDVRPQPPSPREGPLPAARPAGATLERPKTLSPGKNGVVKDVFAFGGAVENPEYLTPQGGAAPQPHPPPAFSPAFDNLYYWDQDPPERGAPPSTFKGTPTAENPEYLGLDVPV

Structures are written as SMILES. A value given as a limit tells only on which side of the number the result lay.

A word on the EC50: it is the concentration needed to bring the measured effect to its halfway point.

`Cc1ccc(Oc2ccc(Nc3ncnc4sc5c(c34)C(C)CN(C(=O)/C=C/CN(C)C)C5)cc2C)cn1` (stereo not drawn) [Compound 98, (E)-4-(dimethylamino)-1-(5-methyl-4-((3-methyl-4-((6-methylpyridin-3-yl)oxy)phenyl)amino)-5,8-dihydropyrido[4′,3′:4,5]thieno[2,3-d]pyrimidin-7(6H)-yl)but-2-en-1-one]: the EC50 was less than 100 nM.

On to `Cc1ccc(Oc2ccc(Nc3ncnc4sc5c(c34)C(C)CN(C(=O)C=CCN(C)C)C5)cc2C)cn1` (single isomer, unassigned) [Compound 105], for which the EC50 was less than 100 nM. In the case of `Cc1ccc(Oc2ccc(Nc3ncnc4sc5c(c34)CCN(C(=O)/C=C/CNC34CCC(C#N)(CC3)CC4)C5)cc2C)cn1` [Compound 72], the EC50 was less than 100 nM.

With `Cc1cc(Nc2ncnc3sc4c(c23)CCN(C(=O)/C=C/CN2CC3CC(C3)C2)C4)ccc1Oc1ccc2ncnn2c1` [Compound 82], the EC50 is less than 100 nM. As to `Cc1cc(Nc2ncnc3sc4c(c23)CCN(C(=O)/C=C/CN2CC3CC2CO3)C4)ccc1Oc1ccc2ncnn2c1` (stereo not drawn) [Compound 77], the EC50 lay in the range of 100 to 350 nM. On to `COc1ccc(Oc2ccc(Nc3ncnc4sc5c(c34)CCN(C(=O)/C=C/CN(C)C)C5)cc2C)cn1` [Compound 95, (E)-4-(Dimethylamino)-1-(4-((4-((6-methoxypyridin-3-yl)oxy)-3-methylphenyl)amino)-5,6-dihydropyrido[4′,3′:4,5]thieno[2,3-d]pyrimidin-7(8H)-yl)but-2-en-1-one], for which the EC50 is less than 100 nM. With `Cc1ccc(Oc2ccc(Nc3ncnc4sc5c(c34)CCCN(C(=O)/C=C/CN(C)C)C5)cc2C)cn1` [Compound 101, (E)-4-(Dimethylamino)-1-(4-((3-methyl-4-((6-methylpyridin-3-yl)oxy)phenyl)amino)-6,7-dihydro-5H-pyrimido[5′,4′:4,5]thieno[2,3-c]azepin-8(9H)-yl)but-2-en-1-one], the EC50 was less than 100 nM. As for `Cc1ccc(Oc2ccc(Nc3ncnc4sc5c(c34)CCN(C(=O)/C=C/CN[C@H]3CC[C@H](OCC(F)(F)F)CC3)C5)cc2C)cn1` [Compound 70], the EC50 is less than 100 nM. For the molecule `Cc1cc(Nc2ncnc3sc4c(c23)CCN(C(=O)/C=C/CN(C)C(C)(C)C)C4)ccc1Oc1ccc2ncnn2c1` [Compound 80], the EC50 is less than 100 nM.

`Cc1ccc(Oc2ccc(Nc3ncnc4sc5c(c34)CCN(C(=O)/C=C/CNCCS(C)(=O)=O)C5)cc2C)cn1` [Compound 45]: the EC50 is less than 100 nM. Consider `Cc1ccc(Oc2ccc(Nc3ncnc4sc5c(c34)CCN(C(=O)/C=C/CN[C@H]3CC[C@H](OC(F)F)CC3)C5)cc2C)cn1` [Compound 69], for which the EC50 is less than 100 nM. For `Cc1ccc(Oc2ccc(Nc3ncnc4sc5c(c34)CCN(C(=O)/C=C/CN3CC4C(CO)C4C3)C5)cc2C)cn1` (stereo not drawn) [Compound 34], the 50% effective concentration (EC50) was less than 100 nM. Consider `Cc1cc(Nc2ncnc3sc4c(c23)CCN(C(=O)/C=C/CN(C)C)C4)ccc1Oc1ccc2nonc2c1` [Compound 104, (E)-1-(4-((4-(Benzo[c][1,2,5]oxadiazol-5-yloxy)-3-methylphenyl)amino)-5,6-dihydropyrido[4′,3′:4,5]thieno[2,3-d]pyrimidin-7(8H)-yl)-4-(dimethylamino)but-2-en-1-one], for which the EC50 is less than 100 nM.

For `Cc1ccc(Oc2ccc(Nc3ncnc4sc5c(c34)CCN(C(=O)/C=C/CN3CC4(C3)CS(=O)(=O)C4)C5)cc2C)cn1` [Compound 57], the EC50 is less than 100 nM. Regarding `Cc1ccc(Oc2ccc(Nc3ncnc4sc5c(c34)CCN(C(=O)/C=C/CNC3CC3)C5)cc2C)cn1` [Compound 40], the EC50 was less than 100 nM. In the case of `Cc1ccc(Oc2ccc(Nc3ncnc4sc5c(c34)CCN(C(=O)/C=C/CNC3COC3)C5)cc2C)cn1` [Compound 38], the EC50 was less than 100 nM. On to `Cc1ccc(Oc2ccc(Nc3ncnc4sc5c(c34)CCN(C(=O)/C=C/CN[C@H]3CC[C@H](OC4CC4)CC3)C5)cc2C)cn1` [Compound 68], for which the EC50 is less than 100 nM. Consider `Cc1cc(Nc2ncnc3sc4c(c23)CCN(C(=O)/C=C/CN(C)C)C4)ccc1Oc1ccc2cn[nH]c2c1` [Compound 23, (E)-1-(4-((4-((1H-indazol-6-yl)oxy)-3-methylphenyl)amino)-5,8-dihydropyrido[4′,3′:4,5]thieno[2,3-d]pyrimidin-7(6H)-yl)-4-(dimethylamino)but-2-en-1-one], for which the EC50 was less than 100 nM. As to `Cc1cc(Nc2ncnc3sc4c(c23)CCN(C(=O)/C=C/CN2CC3CCC(C3)C2)C4)ccc1Oc1ccc2ncnn2c1` [Compound 20], the EC50 was less than 100 nM. `Cc1ccc(Oc2ccc(Nc3ncnc4sc5c(c34)CCN(C(=O)/C=C/CN(CCO)CCO)C5)cc2C)cn1` [Compound 37]: the EC50 lay in the range of 100 to 350 nM.

For the molecule `CN(C)C/C=C/C(=O)N1CCc2c(sc3ncnc(Nc4ccc(Oc5ccc6ncnn6c5)c(Cl)c4)c23)C1` [Compound 5, (E)-1-(4-((4-([1,2,4]triazolo[1,5-a]pyridin-6-yloxy)-3-chlorophenyl)amino)-5,8-dihydropyrido[4′,3′:4,5]thieno[2,3-d]pyrimidin-7(6H)-yl)-4-(dimethylamino)but-2-en-1-one], the EC50 is less than 100 nM.

In the case of `O=C(/C=C/CN1CC2CCC(C2)C1)N1CCc2c(sc3ncnc(Nc4ccc(Oc5ccc6ncnn6c5)c(Cl)c4)c23)C1` [Compound 88], the EC50 was less than 100 nM.

For `Cc1cc(Nc2ncnc3sc4c(c23)CN(C(=O)/C=C/CN(C)C)CC4)ccc1Oc1ccc2ncnn2c1` [Compound 103, (E)-1-(4-((4-([1,2,4]triazolo[1,5-a]pyridin-6-yloxy)-3-methylphenyl)amino)-7,8-dihydropyrido[3′,4′:4,5]thieno[2,3-d]pyrimidin-6(5H)-yl)-4-(dimethylamino)but-2-en-1-one], the EC50 is less than 100 nM. Turning to `COCCN1CCN(C/C=C/C(=O)N2CCc3c(sc4ncnc(Nc5ccc(Oc6ccc(C)nc6)c(C)c5)c34)C2)CC1` [Compound 59], the EC50 was less than 100 nM. In the case of `Cc1ccc(Oc2ccc(Nc3ncnc4sc5c(c34)CCN(C(=O)/C=C/CN3CCCOCC3)C5)cc2C)cn1` [Compound 42], the EC50 is less than 100 nM. For the molecule `CON(C)C/C=C/C(=O)N1CCc2c(sc3ncnc(Nc4ccc(Oc5ccc(C)nc5)c(C)c4)c23)C1` [Compound 56], the EC50 was in the range of 350 to 1000 nM. `C=C(CN1CCc2c(sc3ncnc(Nc4ccc(Oc5ccc(C)nc5)c(C)c4)c23)C1)C(=O)OCC` [Compound 86, Ethyl 2-((4-((3-methyl-4-((6-methylpyridin-3-yl)oxy)phenyl)amino)-5,8-dihydropyrido[4′,3′:4,5]thieno[2,3-d]pyrimidin-7(6H)-yl)methyl)acrylate]: the EC50 was less than 100 nM. On to `Cc1ccc(Oc2ccc(Nc3ncnc4sc5c(c34)CCN(C(=O)/C=C/CN3CC4CC4C3)C5)cc2C)cn1` (stereo not drawn) [Compound 76], for which the EC50 is less than 100 nM. As for `Cc1ccc(Oc2ccc(Nc3ncnc4sc5c(c34)CCN(C(=O)/C=C/CN3CCN4C(=O)CCC4C3)C5)cc2C)cn1` (stereo not drawn) [Compound 58], the EC50 fell in the range of 350 to 1000 nM.

Turning to `O=C(/C=C/CN1CC2CC(C2)C1)N1CCc2c(sc3ncnc(Nc4ccc(Oc5ccc6ncnn6c5)c(Cl)c4)c23)C1` [Compound 85], the EC50 is less than 100 nM.

These data come from US20240391931A1 (Bristol-Myers Squibb Company, priority 2021, published 2024).
